pIC50, pKd: −log10 of the molar value.
Tests used:
HCT-116 [1] = test: cells; conditions: Homo sapiens, HCT-116, 72 h
HCT-116 [2] = conditions: time 72 hrs
[3] = Binding affinity to recombinant PRC2 complex (unknown origin) incubated for 90 seconds by surface plasmon resonance assay; parameters: species or system Homo sapiens
MV4-11 [4] = conditions: time 72 hrs
MV4-11 [5] = test: animal or person; type: functional, Homo sapiens; conditions: Mus musculus, MV4-11, 480 h, route ip, time 20 day, read-out: TGI
MV4-11 [6] = test: cells; conditions: Homo sapiens, MV4-11, 72 h
HL-60 [7] = test: cells; conditions: Homo sapiens, HL-60, 72 h
Homo sapiens = species on record: Homo sapiens; conditions: time 90.0 sec
SU-DHL10 [8] = test: cells; conditions: Homo sapiens, SU-DHL10, 72 h
MDA-MB-231 [9] = conditions: time 72 hrs
SU-DHL10 [10] = conditions: time 72 hrs
MDA-MB-231 [11] = test: cells; conditions: Homo sapiens, MDA-MB-231, 72 h
HL-60 [12] = conditions: time 72 hrs
[13] = Metabolic stability in human liver microsomes assessed as half life measured after 5 mins in presence of NADPH and UDPGA by LC-MS/MS analysis; type: ADME, Microsome
[14] = molecular target: T1, Protein deacetylase HDAC6 (Homo sapiens, UniProt Q9UBN7); test: Inhibition of HDAC6 (unknown origin) preincubated for 5 mins followed by substrate addition and measured after 30 mins by multimode microplate reader analysis
T1 sequence (Q9UBN7 whole entry): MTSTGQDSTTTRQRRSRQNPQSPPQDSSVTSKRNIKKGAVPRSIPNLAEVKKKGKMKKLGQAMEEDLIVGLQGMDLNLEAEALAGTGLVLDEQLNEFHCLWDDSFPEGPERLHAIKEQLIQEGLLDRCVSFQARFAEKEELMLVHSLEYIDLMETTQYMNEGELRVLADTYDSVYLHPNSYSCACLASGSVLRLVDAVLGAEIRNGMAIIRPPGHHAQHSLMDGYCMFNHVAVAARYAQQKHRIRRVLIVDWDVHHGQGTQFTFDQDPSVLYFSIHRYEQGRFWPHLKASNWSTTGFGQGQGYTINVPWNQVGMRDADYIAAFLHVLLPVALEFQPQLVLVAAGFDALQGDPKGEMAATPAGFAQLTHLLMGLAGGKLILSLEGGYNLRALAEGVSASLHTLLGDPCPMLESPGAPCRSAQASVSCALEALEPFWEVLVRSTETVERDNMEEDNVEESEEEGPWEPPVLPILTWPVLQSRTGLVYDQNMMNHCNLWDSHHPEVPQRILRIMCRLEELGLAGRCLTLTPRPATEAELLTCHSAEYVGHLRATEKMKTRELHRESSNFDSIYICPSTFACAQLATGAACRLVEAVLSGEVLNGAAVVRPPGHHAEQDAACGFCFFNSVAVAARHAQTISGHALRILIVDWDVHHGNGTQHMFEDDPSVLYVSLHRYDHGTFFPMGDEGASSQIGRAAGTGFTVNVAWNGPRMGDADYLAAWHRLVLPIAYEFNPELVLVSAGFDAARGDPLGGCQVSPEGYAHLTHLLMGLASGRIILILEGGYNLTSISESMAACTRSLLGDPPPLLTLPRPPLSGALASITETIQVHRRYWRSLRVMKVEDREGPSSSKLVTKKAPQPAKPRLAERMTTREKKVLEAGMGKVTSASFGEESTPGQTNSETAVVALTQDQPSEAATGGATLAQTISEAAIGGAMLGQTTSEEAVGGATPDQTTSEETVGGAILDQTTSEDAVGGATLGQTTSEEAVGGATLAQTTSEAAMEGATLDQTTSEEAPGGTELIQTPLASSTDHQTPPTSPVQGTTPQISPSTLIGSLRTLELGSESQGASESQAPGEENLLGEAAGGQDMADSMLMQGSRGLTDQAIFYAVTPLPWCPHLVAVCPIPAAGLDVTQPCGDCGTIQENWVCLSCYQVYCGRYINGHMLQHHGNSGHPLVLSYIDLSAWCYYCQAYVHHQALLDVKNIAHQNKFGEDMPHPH

[15] = Binding affinity to recombinant PRC2 complex (unknown origin) assessed as dissociation rate constant incubated for 90 seconds by surface plasmon resonance assay; parameters: species or system Homo sapiens
Histone deacetylase 1 = Histone deacetylase 1 (Homo sapiens, UniProt Q13547); test: Inhibition of HDAC1 (unknown origin) preincubated for 5 mins followed by substrate addition and measured after 30 mins by multimode microplate reader analysis; conditions: for IC50: time 35.0 min
Chain of Histone deacetylase 1 (Q13547 whole entry): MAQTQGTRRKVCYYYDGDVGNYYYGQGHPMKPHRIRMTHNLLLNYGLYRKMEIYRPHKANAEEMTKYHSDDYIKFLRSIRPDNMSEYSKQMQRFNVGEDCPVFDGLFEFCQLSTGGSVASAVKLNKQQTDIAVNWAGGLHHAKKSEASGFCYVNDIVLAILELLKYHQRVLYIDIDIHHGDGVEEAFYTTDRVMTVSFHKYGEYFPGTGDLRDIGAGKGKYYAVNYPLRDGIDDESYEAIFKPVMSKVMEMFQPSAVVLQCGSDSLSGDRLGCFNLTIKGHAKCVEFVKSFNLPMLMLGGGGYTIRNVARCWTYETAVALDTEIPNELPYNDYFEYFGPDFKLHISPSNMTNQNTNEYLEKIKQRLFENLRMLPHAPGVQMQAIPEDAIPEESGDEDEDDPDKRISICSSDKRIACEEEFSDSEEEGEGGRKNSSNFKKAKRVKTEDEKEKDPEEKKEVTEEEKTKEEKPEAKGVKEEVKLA

Row | Structure (SMILES) | pIC50 (HCT-116 [1]) | pKd [3] | pIC50 (MV4-11 [6]) | pIC50 (HL-60 [7]) | Ka (Homo sapiens) | pIC50 (SU-DHL10 [8]) | pIC50 (MDA-MB-231 [11]) | half-life [13] [min] | pIC50 [14] | koff [15] [s⁻¹] | pIC50 (Histone deacetylase 1) | IC50 (Histone deacetylase 1) [µM] | CI (HCT-116 [2]) | CI (MV4-11 [4]) | inhibition in vivo at 100 mg/kg (MV4-11 [5]) [%] | CI (MDA-MB-231 [9]) | CI (SU-DHL10 [10]) | CI (HL-60 [12])
1 | CC[C@@H](C)n1cc(C)c2c(C(=O)NCc3c(C)cc(C)[nH]c3=O)cc(-c3ccc(N4CCNCC4)nc3)cc21 | 5.05 | 7.14 | 5.29 | 4.92 | 2.52 10^4/M/s | 5.14 | 4.82 | – | – | – | – | – | 0.91 | 0.38 | 52.7 | 1.2 | 0.8 | 0.65
2 | Cc1cc(C)c(CNC(=O)c2cc(-c3ccc(N4CCN(c5ncc(C(=O)Nc6ccccc6N)cn5)CC4)nc3)cc3c2cnn3C(C)C)c(=O)[nH]1 | – | – | – | – | – | – | – | 17.7 | – | – | – | – | – | – | – | – | – | –
3 | Cc1cc(C)c(CNC(=O)c2cc(-c3ccc(N4CCN(Cc5ccc(C(=O)NO)o5)CC4)nc3)cc3c2cnn3C(C)C)c(=O)[nH]1 | < 4.70 | 6.39 | 5.09 | < 4.70 | – | 4.82 | < 4.70 | – | 5.05 | 0.042 | < 5.00 | – | – | – | – | – | – | –

Second part, led by results:

Row | pIC50 (HCT-116 [1]) | pKd [3] | pIC50 (MV4-11 [6]) | pIC50 (HL-60 [7]) | Ka (Homo sapiens) | pIC50 (SU-DHL10 [8]) | pIC50 (MDA-MB-231 [11]) | half-life [13] [min] | pIC50 [14] | koff [15] [s⁻¹] | pIC50 (Histone deacetylase 1) | IC50 (Histone deacetylase 1) [µM] | Structure (SMILES) | CI (HCT-116 [2]) | CI (MV4-11 [4]) | inhibition in vivo at 100 mg/kg (MV4-11 [5]) [%] | CI (MDA-MB-231 [9]) | CI (SU-DHL10 [10]) | CI (HL-60 [12])
4 | < 4.70 | 7.68 | 4.95 | < 4.70 | – | < 4.70 | < 4.70 | – | – | – | – | – | Cc1cc(C)c(CNC(=O)c2cc(-c3ccc(N4CCN(C(C)C)CC4)nc3)cc3c2cnn3C(C)C)c(=O)[nH]1 | 0.89 | 0.43 | – | 1.6 | 0.78 | 0.77
5 | < 4.70 | 6.55 | 4.75 | 4.75 | – | 4.89 | < 4.70 | – | 5.91 | 0.16 | – | 5.82 | C=C(CCCCCNc1cc(-c2ccc(N3CCN(C(=O)OC(C)(C)C)CC3)nc2)cc(C(=O)NCc2c(C)cc(C)[nH]c2=O)c1C)NO | – | – | – | – | – | –
6 | 5.29 | 5.86 | 5.32 | 5.69 | – | 5.82 | 5.17 | – | 5.71 | 0.099 | – | 2.05 | Cc1cc(C)c(CNC(=O)c2cc(-c3ccc(N4CCN(C(=O)OC(C)(C)C)CC4)nc3)cc(NCCCCCCCC(=O)NO)c2C)c(=O)[nH]1 | – | – | – | – | – | –

Reference: ChEMBL document CHEMBL5108052, “Histone Deacetylase and Enhancer of Zeste Homologue 2 Dual Inhibitors Presenting a Synergistic Effect for the Treatment of Hematological Malignancies” (J Med Chem, 2022)
